Earlier results, collected in PMC6271218, “Pharmacokinetics, Tissue Distribution and Excretion of Verticinone from F. hupehensis in Rats” (Molecules, 2014).

Set-up: method as in PMID 20446906
Conditions: same dose administered; cited from earlier work

C[C@@H](Oc1cc(-c2cnn(C3CCNCC3)c2)cnc1N)c1c(Cl)ccc(F)c1Cl [PF-02341066]
plasma concentrations, fold higher in male than in female rats: at least 2 fold
